Results as given in US4228187A, “Alkyl and cycloalkylthiophenylalkylaminoalkanols, their salts and the preparation thereof” (priority 1973, dated 1980).

Key:
Hist. = test: Antispasmodic activity, Hist.
BaCl2 = test: Antispasmodic activity, BaCl2
DL50 mouse p.o. = conditions: in vivo, po, limits of reliability (p : 0.95) in brackets
From the text: (1) the limits of reliability (p : 0.95) are given in brackets.

Ac.chol. = test: Antispasmodic activity, Ac.chol.
guinea pig atria's = test: Protective activity against anoxia (guinea pig atria); parameters: key: scale: + = 10 to 20% increase in survival time; conditions: increase in survival time
From the text: (5) guinea pig atria's;
+ = increase in survival time of 10 to 20%

[1] = test system: spontaneously hypertensive rat; test: Antihypertensive activity (spontaneously hypertensive rat); type: in vivo; conditions: 15 mg/kg per os
Description: (3) spontaneously hypertensive rat; 15 mg/kg per os;
± reduction of systolic pressure up to 10 mm of Hg
+ reduction of systolic pressure of 10 to 20 mm Hg
++ reduction of systolic pressure of at least 20 mm of Hg

[2] = test system: peripheral vasodilatatory activity; test: Vasodilatory effect after intraarterial injection in dog; type: in vivo
Description: (1) intraarterial injection in dog (5 animals) 10, 20 and 30 μg/kg.
(2) maximum vasodilatory effect in mm of Hg.
(3) and (4) expressed in seconds.

| Compound | Antispasmodic activity CE 100, Hist. (Hist.) | Antispasmodic activity CE 100, BaCl2 (BaCl2) | LD50 (DL50 mouse p.o.) | Antispasmodic activity CE 100, Ac.chol. (Ac.chol.) | Protective activity against anoxia (guinea pig atria's) | further results |
| --- | --- | --- | --- | --- | --- | --- |
| CCCCNC(C)C(O)c1ccc(SCC)cc1 (stereo not shown) [No 12] | 1000 μ g γ 60 ml | 1000 μ g γ 60 ml | 312 mg/kg | 500 μ g γ 60 ml | 0 |  |
| CCC(NC(C)C)C(O)c1ccc(SC(C)C)cc1 (stereo not shown) [No 7] | 1000 μ g γ 60 ml | 1000 μ g γ 60 ml |  | 200 μ g γ 60 ml | 0 |  |
| CCCCCCCCNC(CC)C(O)c1ccc(SC(C)C)cc1 (stereo not shown) [No 8] | 500 μ g γ 60 ml | 100 μ g γ 60 ml | > 4000 mg/kg | 500 μ g γ 60 ml | 0 | Anti-hypertensive activity [1]: 0 |
| CC(Cc1ccccc1)NC(C)C(O)c1ccc(SC(C)C)cc1 (stereo not shown) [No 35] | 200 μ g γ 60 ml | 500 μ g γ 60 ml | 2100 mg/kg | 500 μ g γ 60 ml |  | Anti-hypertensive activity [1]: ± (reduction of systolic pressure up to 10 mm of Hg) |
| CC(NC(C)(C)C)C(O)c1ccc(SC2CCCCC2)cc1 (stereo not shown) [No 21] | 500 μ g γ 60 ml | 500 μ g γ 60 ml |  | 100 μ g γ 60 ml |  | Anti-hypertensive activity [1]: 0 |
| CCC(C)NC(C)C(O)c1ccc(SCC(C)C)cc1 (stereo not shown) [No 23] | 200 μ g γ 60 ml | 500 μ g γ 60 ml |  | 200 μ g γ 60 ml | 0 |  |
| 1-(4-methylthiophenyl)-2-n-octylaminopropanol [No 11] | 1000 μ g γ 60 ml | > 1000 μ g γ 60 ml |  | 1000 μ g γ 60 ml | 0 |  |
| CCCCCCNC(C)C(O)c1ccc(SC(C)C)cc1 (stereo not shown) [No 28] |  |  | 1450 mg/kg |  |  |  |
| CCCCCCCCNC(C)C(O)c1ccc(SC)cc1 (stereo not shown) [No 11] | 200 μ g γ 60 ml | 100 μ g γ 60 ml | 970 mg/kg | 200 μ g γ 60 ml | 0 | Anti-hypertensive activity [1]: ++ (reduction of systolic pressure of at least 20 mm of Hg) |
| CCC(C)NC(CC)C(O)c1ccc(SC(C)C)cc1 (stereo not shown) [No 9] | 1000 μ g γ 60 ml | 500 μ g γ 60 ml |  | 200 μ g γ 60 ml | ++ (increase in survival time of more than 25%) |  |
| CCCCNC(C)C(O)c1ccc(SC2CCCCC2)cc1 (stereo not shown) [No 14] | 500 μ g γ 60 ml | 200 μ g γ 60 ml |  | 100 μ g γ 60 ml |  |  |
| CCC(NC(C)C)C(O)c1ccc(SC2CCCCC2)cc1 (stereo not shown) [No 27] | 500 μ g γ 60 ml | 200 μ g γ 60 ml |  | 200 μ g γ 60 ml |  |  |
| CCCCCCCNC(C)C(O)c1ccc(SC(C)C)cc1 (stereo not shown) [No 29] |  |  | ~2400 mg/kg |  |  |  |
| CC(C)CSc1ccc(C(O)C(C)NC(C)(C)C)cc1 (stereo not shown) [No 24] | 200 μ g γ 60 ml | 500 μ g γ 60 ml |  | 1000 μ g γ 60 ml |  |  |
| CCCCCCCCNC(C)C(O)c1ccc(SCC(C)C)cc1 (stereo not shown) [No 26] | 200 μ g γ 60 ml | 200 μ g γ 60 ml | > 4000 mg/kg | 200 μ g γ 60 ml | 0 |  |
| COc1ccc(Cc2nccc3cc(OC)c(OC)cc23)cc1OC [papaverine, reference compound] |  |  |  |  |  | Amplitude (maximum vasodilatory effect) ([2]; 10 μg/kg): 40 mm of Hg; Duration of effect ([2]; 10 μg/kg): 43 s; Amplitude (maximum vasodilatory effect) ([2]; 20 μg/kg): 51 mm of Hg; Duration of effect ([2]; 20 μg/kg): 45 s; Amplitude (maximum vasodilatory effect) ([2]; 30 μg/kg): 54 mm of Hg; Duration of effect ([2]; 30 μg/kg): 47 s |
| CC(C)CSc1ccc(C(O)C(C)NC(C)C)cc1 (stereo not shown) [No 22] | 500 μ g γ 60 ml | 500 μ g γ 60 ml | 1280 mg/kg | 1000 μ g γ 60 ml | 0 |  |
| CCCCNC(CC)C(O)c1ccc(SCC)cc1 (stereo not shown) [No 19] | 1000 μ g γ 60 ml | 500 μ g γ 60 ml | 640 mg/kg | 1000 μ g γ 60 ml | 0 |  |
| CCCCCCCCNC(C)C(O)c1ccc(SC2CCCCC2)cc1 (stereo not shown) [No 15] | 1000 μ g γ 60 ml | 1000 μ g γ 60 ml | ~5000 mg/kg | 500 μ g γ 60 ml |  | Anti-hypertensive activity [1]: ++ (reduction of systolic pressure of at least 20 mm of Hg) |
| CC(C)NC(C)C(O)c1ccc(SC(C)C)cc1 (stereo not shown) [No 3] |  |  | 630 mg/kg |  |  |  |
| CCC(C(O)c1ccc(SC2CCCCC2)cc1)N1CCCCC1 (stereo not shown) [No 34] | 1000 μ g γ 60 ml | 200 μ g γ 60 ml |  | 100 μ g γ 60 ml |  |  |
| CCCCNC(C)C(O)c1ccc(SC(C)C)cc1 (stereo not shown) [No 1] | 500 μ g γ 60 ml | 500 μ g γ 60 ml | 680 mg/kg | 1000 μ g γ 60 ml | 0 |  |
| CCCCNC(C)C(O)c1ccc(SCC(C)C)cc1 (stereo not shown) [No 25] | 200 μ g γ 60 ml | 200 μ g γ 60 ml | 1350 mg/kg | 100 μ g γ 60 ml | 0 |  |
| CCC(C)NC(C)C(O)c1ccc(SC(C)C)cc1 (stereo not shown) [No 4] | 1000 μ g γ 60 ml | 500 μ g γ 60 ml | 520 mg/kg | 1000 μ g γ 60 ml | 0 |  |
| CCCCNC(CC)C(O)c1ccc(SC(C)C)cc1 (stereo not shown) [No 6] | 500 μ g γ 60 ml | 1000 μ g γ 60 ml | > 1000 mg/kg | 100 μ g γ 60 ml | 0 |  |
| CCCCCCCCNC(C)C(O)c1ccc(SC2CCCC2)cc1 (stereo not shown) [No 32] |  |  | > 4000 mg/kg |  |  | Anti-hypertensive activity [1]: ++ (reduction of systolic pressure of at least 20 mm of Hg) |
| CC(C)Sc1ccc(C(O)C(C)NC(C)(C)C)cc1 (stereo not shown) [No 5] | > 1000 μ g γ 60 ml | 1000 μ g γ 60 ml |  | 1000 μ g γ 60 ml | 0 |  |
| CC(C(O)c1ccc(SC2CCCCC2)cc1)N1CCCCC1 (stereo not shown) [No 33] | > 1000 μ g γ 60 ml | > 1000 μ g γ 60 ml |  | > 1000 μ g γ 60 ml |  |  |
| CCC(C)NC(C)C(O)c1ccc(SC2CCCCC2)cc1 (stereo not shown) [No 16] | 500 μ g γ 60 ml | 200 μ g γ 60 ml |  | 200 μ g γ 60 ml |  |  |
